Where “and” joins values, the source holds several entries; their conditions need not be identical. Identical values can stand only once.
molecular target: T1, partially purified rat brain farnesyl protein transferase (FPT) (Rattus norvegicus, UniProt Q02293+Q04631); test: FPT IC50 in vitro enzyme assay (inhibition of Ras-CVLS farnesylation); assay type: biochemical; conditions: inhibition of Ras-CVLS famesylation; methods of WO/10515 or WO 95/10516
T1 construct: partially purified rat brain farnesyl protein transferase (FPT); from tissue; host or cells: rat brain
T1 sequence (Q02293 whole entry, one chain of several): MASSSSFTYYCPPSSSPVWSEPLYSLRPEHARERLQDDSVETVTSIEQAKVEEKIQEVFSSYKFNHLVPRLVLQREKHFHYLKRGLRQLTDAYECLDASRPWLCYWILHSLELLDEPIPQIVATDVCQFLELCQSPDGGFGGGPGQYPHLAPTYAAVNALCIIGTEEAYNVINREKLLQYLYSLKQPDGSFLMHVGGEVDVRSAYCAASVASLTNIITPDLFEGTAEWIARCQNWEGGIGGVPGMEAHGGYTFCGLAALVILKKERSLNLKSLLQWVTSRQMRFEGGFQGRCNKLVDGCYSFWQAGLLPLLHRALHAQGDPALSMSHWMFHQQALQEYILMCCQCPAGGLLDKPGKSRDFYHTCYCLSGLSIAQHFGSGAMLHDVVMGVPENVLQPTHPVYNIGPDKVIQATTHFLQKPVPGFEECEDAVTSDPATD
Protocol: 1. In vitro enzyme assays: FPT IC50 (inhibition of farnesyl protein transferase, in vitro enzyme assay) are determined by the methods disclosed in […] or WO 95/10516.

`COc1cccc(CN2CCN(C(=O)NC3CCCCC3)[C@@H](C(=O)NCCc3cncn3Cc3ccc(C#N)cc3)C2)c1` [Example 26] and `N#Cc1ccc(Cn2cncc2CCNC(=O)[C@H]2CN(Cc3cccc(Cl)c3)CCN2C(=O)NC2CCCCC2)cc1` [Example 25] fall in the same range of IC50: 0.18 to 1.5 nM for the first, 0.18 to 1.5 nM for the second.

`N#Cc1ccc(Cn2cncc2CCNC(=O)C2CN(Cc3ccccc3)CCN2S(=O)(=O)Cc2ccccc2)cc1` (stereo not shown) [Example 28M] and `N#Cc1ccc(Cn2cncc2CCNC(=O)C2CN(Cc3ccccc3)CCN2C(=O)Cc2ccccc2)cc1` (stereo not shown) [Example 28I] fall in the same range of IC50: 0.18 to 21 nM for the first, 0.18 to 21 nM for the second.

`N#Cc1ccc(Cn2cncc2CCNC(=O)C2CN(Cc3ccccc3)CCN2C(=O)CC2CCN(C(N)=O)CC2)cc1` (stereo not shown) [Example 28Q] and `CCCC(=O)N1CCN(Cc2ccccc2)CC1C(=O)NCCc1cncn1Cc1ccc(C#N)cc1` (stereo not shown) [Example 28F] fall in the same range of IC50: 0.18 to 21 nM for the first, 0.18 to 21 nM for the second.

`CC(c1ccccc1)N1CCN(C(=O)NC2CCCCC2)[C@@H](C(=O)NCCc2cncn2Cc2ccc(C#N)cc2)C1` (stereo partly drawn) [Example 1, N2-[2-[1-[(4-cyanophenyl)methyl]-1H-imidazol-5-yl]ethyl]-N1-cyclohexyl-4-(1-phenylethyl)-1,2(R)-piperazinedicarboxamide] and `N#Cc1ccc(Cn2cncc2CCNC(=O)[C@H]2CN(Cc3ccccc3Cl)CCN2C(=O)NC2CCCCC2)cc1` [Example 28] cannot be ordered by IC50: 0.18 to 21 nM for the first, 0.18 to 1.5 nM for the second.

`CC(=O)Nc1ccc(CN2CCN(C(=O)NC3CCCCC3)[C@@H](C(=O)NCCc3cncn3Cc3ccc(C#N)cc3)C2)cc1` [Example 20] and `N#Cc1ccc(Cn2cncc2CCNC(=O)[C@H]2CN(Cc3ccncc3)CCN2C(=O)NC2CCCCC2)cc1` [Example 5] cannot be ordered by IC50: 0.18 to 1.5 nM for the first, 0.18 to 21 nM for the second.

`N#Cc1ccc(Cn2cncc2CCNC(=O)C2CN(Cc3ccccc3)CCN2C(=O)c2ccccc2)cc1` (stereo not shown) [Example 28G] and `COc1ccccc1CN1CCN(C(=O)NC2CCCCC2)[C@@H](C(=O)NCCc2cncn2Cc2ccc(C#N)cc2)C1` [Example 27] cannot be ordered by IC50: 0.18 to 21 nM for the first, 0.18 to 1.5 nM for the second.

`N#Cc1ccc(Cn2cncc2CCNC(=O)[C@H]2CN(CC3CC4C=CC3C4)CCN2C(=O)NC2CCCCC2)cc1` (stereo partly shown) [Example 6] and `O=C(C1CN(Cc2ccccc2)CCN1C(=O)NC1CCCCC1)N(CCCn1ccnc1)Cc1ccccc1` (stereo not shown) [Example 28S] fall in the same range of IC50: 0.18 to 21 nM for the first, 0.18 to 21 nM for the second.

Work on `CC(C)(C)NC(=O)N1CCN(Cc2ccccc2)CC1C(=O)N(CCCn1ccnc1)Cc1ccccc1` (stereo not shown) [Example 28T] yielded an IC50 of 0.18 to 21 nM.

`CC(C)(C)NC(=O)N1CCN(Cc2ccccc2)CC1C(=O)NCCc1cncn1Cc1ccc(C#N)cc1` (stereo not shown) [Example 28O] was tested, and the IC50 was 0.18 to 21 nM and 0.18 to 1.5 nM.

From patent EP1140909B1, “NOVEL INHIBITORS OF FARNESYL-PROTEIN TRANSFERASE” (Schering Corporation, priority 1998, dated 2000)
